Laboratory results taken from ChEMBL document CHEMBL3751791, “Alkenes with antioxidative activities from Murraya koenigii (L.) Spreng” (Bioorg Med Chem Lett, 2016).

Test: Antioxidative activity of the compound assessed as DPPH radical scavenging activity
Format: physicochemical

| IC50 [µM] | SMILES |
| --- | --- |
| 38.4 | C=C[C@](C)(O)CC/C=C(C)/C=C/[C@@H](O[C@H]1O[C@@H](CO)[C@H](O)[C@@H](O)[C@@H]1O)C(C)(C)O |
| 25.4 | CC/C=C/C[C@H](O)/C=C/[C@H](O)[C@H](O)[C@H](O)CCCCC[C@H](C)O |
| 23.5 | C=C[C@](C)(O)C[C@@H](O)/C=C(\C)[C@@H](O)CC=C(C)C |
| 40.2 | C=C[C@](C)(CC/C=C(\CO)CC/C=C(\C)C[C@@H](O)/C=C(\C)C(=O)O)O[C@H]1O[C@@H](CO)[C@H](O)[C@@H](O)[C@@H]1O |
| 56.4 | O=C(/C=C/c1ccc(O)c(O)c1)O[C@@H]1C[C@](O)(C(=O)O)C[C@@H](O)[C@H]1O [CHLOROGENIC ACID] |
